Test results as given in ChEMBL document CHEMBL3039007, “Structure-based identification of OATP1B1/3 inhibitors” (Mol Pharmacol, 2013).

Tests used:
[1] = molecular target: T1, Solute carrier organic anion transporter family member 1B1 (Homo sapiens, UniProt Q9Y6L6); details: chinese hamster, cho, 10 µM
T1 sequence (Q9Y6L6 whole entry): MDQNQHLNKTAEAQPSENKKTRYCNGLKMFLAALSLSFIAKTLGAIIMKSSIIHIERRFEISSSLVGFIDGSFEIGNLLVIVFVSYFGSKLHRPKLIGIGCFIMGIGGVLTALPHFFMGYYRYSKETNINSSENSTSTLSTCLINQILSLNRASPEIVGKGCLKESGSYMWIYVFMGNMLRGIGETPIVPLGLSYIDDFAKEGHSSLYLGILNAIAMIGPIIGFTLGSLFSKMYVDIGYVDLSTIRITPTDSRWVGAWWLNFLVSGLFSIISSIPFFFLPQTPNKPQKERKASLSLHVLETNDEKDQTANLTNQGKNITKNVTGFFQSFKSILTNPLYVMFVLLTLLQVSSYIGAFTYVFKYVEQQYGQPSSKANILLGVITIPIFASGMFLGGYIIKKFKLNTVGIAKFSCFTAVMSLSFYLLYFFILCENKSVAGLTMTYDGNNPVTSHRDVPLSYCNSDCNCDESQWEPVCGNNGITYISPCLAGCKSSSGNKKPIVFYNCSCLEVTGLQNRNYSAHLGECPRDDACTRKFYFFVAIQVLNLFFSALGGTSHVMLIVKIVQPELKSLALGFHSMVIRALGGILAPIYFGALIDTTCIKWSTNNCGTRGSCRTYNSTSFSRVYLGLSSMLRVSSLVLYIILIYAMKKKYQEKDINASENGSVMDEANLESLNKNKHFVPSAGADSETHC

[2] = molecular target: T2, Solute carrier organic anion transporter family member 1B3 (Homo sapiens, UniProt Q9NPD5); details: chinese hamster, cho, 10 µM
T2 sequence (Q9NPD5 whole entry): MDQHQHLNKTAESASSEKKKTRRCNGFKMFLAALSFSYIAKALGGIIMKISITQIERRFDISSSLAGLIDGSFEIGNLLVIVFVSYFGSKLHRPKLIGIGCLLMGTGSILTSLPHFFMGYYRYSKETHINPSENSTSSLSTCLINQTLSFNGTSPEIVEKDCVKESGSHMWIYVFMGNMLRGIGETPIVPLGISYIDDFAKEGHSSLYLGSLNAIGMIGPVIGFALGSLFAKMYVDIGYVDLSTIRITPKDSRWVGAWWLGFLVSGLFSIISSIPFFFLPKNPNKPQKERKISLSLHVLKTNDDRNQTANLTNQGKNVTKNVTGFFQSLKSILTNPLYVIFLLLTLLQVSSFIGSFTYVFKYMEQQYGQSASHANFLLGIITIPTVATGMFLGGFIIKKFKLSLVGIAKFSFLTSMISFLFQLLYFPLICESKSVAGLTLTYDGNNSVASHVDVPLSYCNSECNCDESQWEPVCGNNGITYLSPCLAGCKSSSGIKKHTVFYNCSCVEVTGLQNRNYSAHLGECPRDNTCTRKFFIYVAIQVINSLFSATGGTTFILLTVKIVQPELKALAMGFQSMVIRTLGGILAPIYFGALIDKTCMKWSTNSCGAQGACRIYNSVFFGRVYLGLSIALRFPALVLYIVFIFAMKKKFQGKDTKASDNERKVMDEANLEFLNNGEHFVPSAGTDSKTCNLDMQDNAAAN

| SMILES | residual activity [1] | residual activity [2] |
| --- | --- | --- |
| COc1cc2c(cc1OC)[C@@H]1C(=O)c3ccc4c(c3O[C@@H]1CO2)CC(C(C)C)O4 (stereo partly drawn) [DIHYDROROTENONE] | 53.61% | 63.71% |
| CC(=O)O[C@@H]1c2c(ccc3ccc(=O)oc23)OC(C)(C)[C@@H]1OC(=O)CC(C)C [DIHYDROSAMIDIN] | 75.05% | 104.1% |
| Cc1cc(=O)c2c(O)c3c(cc2o1)OC(C)(C)CC3 [DIHYDROSPATHELIACHROMENE] | 127.1% | 116.8% |
| CN[C@@H]1[C@H](O[C@H]2[C@H](O[C@H]3[C@H](O)[C@@H](O)[C@H](NC(=N)N)[C@@H](O)[C@@H]3NC(=N)N)O[C@@H](C)[C@]2(O)CO)O[C@@H](CO)[C@H](O)[C@H]1O.CN[C@@H]1[C@H](O[C@H]2[C@H](O[C@H]3[C@H](O)[C@@H](O)[C@H](NC(=N)N)[C@@H](O)[C@@H]3NC(=N)N)O[C@@H](C)[C@]2(O)CO)O[C@@H](CO)[C@H](O)[C@H]1O.O=S(=O)(O)O.O=S(=O)(O)O.O=S(=O)(O)O [DIHYDROSTREPTOMYCIN SULFATE] | 78.79% | 99.04% |
| Cc1cccc2c3c(ccc12)C1=C(C(=O)C3=O)[C@@H](C)CO1 [DIHYDROTANSHINONE I] | 111.4% | 129.1% |
| COc1ccc([C@@H]2Sc3ccccc3N(CCN(C)C)C(=O)[C@@H]2OC(C)=O)cc1.Cl [DILTIAZEM HYDROCHLORIDE] | 26.71% | 80.81% |
| CNC(=O)CSP(=S)(OC)OC [DIMETHOATE] | 106.9% | 114.1% |
| CS(C)(=O)=O [DIMETHYL SULFONE] | 115.1% | 102.7% |
| Cc1c(C(N)=O)cc([N+](=O)[O-])cc1[N+](=O)[O-] [DINITOLMIDE] | 98.02% | 106.4% |
| COc1ccc(-c2cc(=O)c3c(O)cc(O[C@@H]4O[C@H](CO[C@@H]5O[C@@H](C)[C@H](O)[C@@H](O)[C@H]5O)[C@@H](O)[C@H](O)[C@H]4O)cc3o2)cc1O [DIOSMIN] | 67.13% | 93.34% |
| COc1c(Cl)c(C)c2c(c1Cl)OC(=O)c1c(C)c(Cl)c(OC)c(Cl)c1O2 [DIPLOICIN METHYL ETHER] | 97.17% | 103.5% |
| CC(=O)Oc1ccccc1C(=O)Oc1ccccc1C(=O)O [DIPLOSALSALATE] | 91.69% | 93.37% |
| CC[C@H](C)[C@H](N)C(=O)N1CCC[C@H]1C(=O)N[C@H](C(=O)O)[C@@H](C)CC [DIPROTIN A] | 108.3% | 116.8% |
| CC(=O)Oc1cccc(C(=O)O)c1OC(C)=O [DIPYROCETYL] | 115.7% | 102.1% |
| Cc1c(N(C)CS(=O)(=O)[O-])c(=O)n(-c2ccccc2)n1C.[Na+] [DIPYRONE SODIUM] | 72.95% | 89.51% |
| CC[C@H]1OC(=O)[C@H](C)[C@@H](O[C@H]2C[C@@](C)(OC)[C@@H](O)[C@H](C)O2)[C@H](C)[C@@H](O[C@@H]2O[C@H](C)C[C@H](N(C)C)[C@H]2O)[C@](C)(O)C[C@@H](C)[C@@H]2N[C@@H](COCCOC)O[C@H]([C@H]2C)[C@]1(C)O [DIRITHROMYCIN] | 109.1% | 95.43% |
| C[C@@H]1CC[C@@]2(OC1)O[C@H]1C[C@H]3[C@@H]4CC=C5C[C@@H](O)CC[C@]5(C)[C@H]4CC[C@]3(C)[C@H]1[C@@H]2C [DISOGENIN] | 85.54% | 85.35% |
| CCOP(=S)(OCC)SCCSCC [DISULFOTON] | 113.3% | 105.1% |
| CC(CCc1ccc(O)cc1)NCCc1ccc(O)c(O)c1.Cl (stereo not drawn) [DOBUTAMINE HYDROCHLORIDE] | 91.62% | 105.8% |
| Cl.NCCc1ccc(O)c(O)c1 [DOPAMINE HYDROCHLORIDE] | 66.46% | 73.49% |
| CCN(CC)CCOC(=O)C(c1ccccc1)C1CCCCC1.Cl (stereo not drawn) [DROFENINE HYDROCHLORIDE] | 99.44% | 112.3% |
| OCC(O)CN1CCN(c2ccccc2)CC1 (stereo not drawn) [DROPROPIZINE] | 71.05% | 96.03% |

| SMILES | residual activity [1] | residual activity [2] |
| --- | --- | --- |
| COc1ccc([C@H]2COc3c(ccc(O)c3OC)C2)c(OC)c1O [DUARTIN (-)] | 88.51% | 86.99% |
| COc1ccc2c(c1OC)OC[C@@H](c1ccc(OC)c(OC)c1OC)C2 [DUARTIN, DIMETHYL ETHER] | 113.2% | 110.8% |
| CCCCOc1ccc(C(=O)CCN2CCCCC2)cc1.Cl [DYCLONINE HYDROCHLORIDE] | 170.9% | 83.62% |
| Cn1c(=O)c2c(ncn2CC(O)CO)n(C)c1=O (stereo not drawn) [DYPHYLLINE] | 92.75% | 94.34% |
| CCOc1ccc2c(c1)C(C)=CC(C)(C)N2 [E324] | 108.3% | 119.7% |
| CC1(C)CC[C@]2(C(=O)O)[C@H](O)C[C@]3(C)C(=CC[C@@H]4[C@@]5(C)CC[C@H](O)C(C)(C)[C@@H]5CC[C@]43C)[C@@H]2C1 [ECHINOCYSTIC ACID] | 69.3% | 30.48% |
| Clc1ccc(COC(Cn2ccnc2)c2ccc(Cl)cc2Cl)cc1.O=[N+]([O-])O (stereo not drawn) [ECONAZOLE NITRATE] | 146.5% | 127.4% |
| O=C(O)CN(CCN(CC(=O)O)CC(=O)O)CC(=O)O [EDETIC ACID] | 81.77% | 82.24% |
| CCc1cn([C@H]2C[C@H](O)[C@@H](CO)O2)c(=O)[nH]c1=O [EDOXUDINE] | 92.48% | 109.7% |
| CC[N+](C)(C)c1cccc(O)c1.[Cl-] [EDROPHONIUM CHLORIDE] | 79.44% | 93.08% |
| CCC1(C2=NCCN2)Cc2ccccc2O1.Cl (stereo not drawn) [EFAROXAN HYDROCHLORIDE] | 80.2% | 83.03% |
| CCCCCCCC/C=C/CCCCCCCCOP(=O)([O-])OCC[N+](C)(C)C [ELAIDYLPHOSPHOCHOLINE] | 66.64% | 84.98% |
| O=c1oc2c(O)c(O)cc3c(=O)oc4c(O)c(O)cc1c4c23 [ELLAGIC ACID] | 75.25% | 65.47% |
| CCCCCCCCCCCC1=C(O)C(=O)C=C(O)C1=O [EMBELIN] | 98.02% | 94.22% |
| O=C(O)c1cc(O)c2c(c1)C(=O)c1cc(O)cc(O)c1C2=O [EMODIC ACID] | 150% | 72.9% |
| Cc1cc(O)c2c(c1)C(=O)c1cc(O)cc(O)c1C2=O [EMODIN] | 135% | 119.5% |
| CCOC(=O)[C@H](CCc1ccccc1)N[C@@H](C)C(=O)N1CCC[C@H]1C(=O)O.O=C(O)/C=C\C(=O)O [ENALAPRIL MALEATE] | 190.1% | 110.9% |
| O=C(CC[N+](=O)[O-])OC[C@H]1O[C@@H](O)[C@H](OC(=O)CC[N+](=O)[O-])[C@@H](OC(=O)CC[N+](=O)[O-])[C@@H]1OC(=O)CC[N+](=O)[O-] [ENDECAPHYLLIN X] | 80.29% | 82.04% |
| O=S1OCC2C(CO1)C1(Cl)C(Cl)=C(Cl)C2(Cl)C1(Cl)Cl (stereo not drawn) [ENDOSULFAN] | 111.6% | 117.8% |
| ClC1=C(Cl)C2(Cl)C3C4CC(C5OC45)C3C1(Cl)C2(Cl)Cl (stereo not drawn) [ENDRIN] | 107.3% | 121% |
| CC(C)C[C@H](NC(=O)[C@H](Cc1ccccc1)NC(=O)CNC(=O)CNC(=O)[C@@H](N)Cc1ccc(O)cc1)C(=O)O [ENKEPHALIN] | 84.58% | 87.68% |
| CCn1cc(C(=O)O)c(=O)c2cc(F)c(N3CCNCC3)nc21 [ENOXACIN] | 111.1% | 89.58% |
